Literature values in PMC12729893, “Untargeted UHPLC-HRMS Metabolomic Profiling of Cornus mas L. Fruits: Impact of Conventional and Emerging Extraction Methods on Phenolic Composition and Bioactivity” (Antioxidants, 2025).

| SMILES | α-amylase inhibition according to computational analysis (α-amylase) | α-glucosidase inhibition according to computational analysis (α-glucosidase) |
| --- | --- | --- |
| O=c1oc2c(O)c(O)cc3c(=O)oc4c(O)c(O)cc1c4c23 [ellagic acid] | most effective inhibitors | most effective inhibitors |
| C[C@@H]1O[C@@H](OC[C@H]2O[C@@H](Oc3cc4c(O)cc(O)cc4[o+]c3-c3ccc(O)cc3)[C@H](O)[C@@H](O)[C@H]2O)[C@H](O)[C@H](O)[C@H]1O [pelargonidin 3-robinobioside] |  | most potent inhibitor |
